From PubChem BioAssay AID2060903 (Molecular Pharmacology Branch, DTP, NCI, 2025)

Tested on: 377384-186-R-J1-PDC complex spheroid viability
Assay: Anticancer human tumor 377384-186-R-J1-PDC patient-derived pancreatic carcinoma cell line growth inhibition [RAS]
Details: for viability, T/C: stronger effect = lower value
In short: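 Multi-cell-type spheroids: tumor cells plus HUVEC endothelial cells and mesenchymal stem cells. RAS-pathway inhibitors were combined with targeted agents, each dosed in half-log steps down from clinical Cmax, or from 10 microM when Cmax was unknown.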

[1] = curve of first compound, second compound 0.000949 µM
[2] = curve of first compound, second compound 0.003 µM
[3] = curve of first compound, second compound 0.00949 µM
[4] = curve of first compound, second compound 0.03 µM
[5] = curve of first compound, second compound 0.0949 µM
[6] = curve of first compound, second compound 0.3 µM
[7] = second compound 0.000949 µM, first compound 0.00316 µM
[8] = second compound 0.000949 µM, first compound 0.01 µM
[9] = second compound 0.000949 µM, first compound 0.0316 µM
[10] = second compound 0.000949 µM, first compound 0.1 µM
[11] = second compound 0.000949 µM, first compound 0.316 µM
[12] = second compound 0.000949 µM, first compound 1 µM
[13] = second compound 0.003 µM, first compound 0.00316 µM
[14] = second compound 0.003 µM, first compound 0.01 µM
[15] = second compound 0.003 µM, first compound 0.0316 µM
[16] = second compound 0.003 µM, first compound 0.1 µM
[17] = second compound 0.003 µM, first compound 0.316 µM
[18] = second compound 0.003 µM, first compound 1 µM
[19] = second compound 0.00949 µM, first compound 0.00316 µM
[20] = second compound 0.00949 µM, first compound 0.01 µM
[21] = second compound 0.00949 µM, first compound 0.0316 µM
[22] = second compound 0.00949 µM, first compound 0.1 µM
[23] = second compound 0.00949 µM, first compound 0.316 µM
[24] = second compound 0.00949 µM, first compound 1 µM
[25] = second compound 0.03 µM, first compound 0.00316 µM
[26] = second compound 0.03 µM, first compound 0.01 µM
[27] = second compound 0.03 µM, first compound 0.0316 µM
[28] = second compound 0.03 µM, first compound 0.1 µM
[29] = second compound 0.03 µM, first compound 0.316 µM
[30] = second compound 0.03 µM, first compound 1 µM
[31] = second compound 0.0949 µM, first compound 0.00316 µM
[32] = second compound 0.0949 µM, first compound 0.01 µM
[33] = second compound 0.0949 µM, first compound 0.0316 µM
[34] = second compound 0.0949 µM, first compound 0.1 µM
[35] = second compound 0.0949 µM, first compound 0.316 µM
[36] = second compound 0.0949 µM, first compound 1 µM
[37] = second compound 0.3 µM, first compound 0.00316 µM
[38] = second compound 0.3 µM, first compound 0.01 µM
[39] = second compound 0.3 µM, first compound 0.0316 µM
[40] = second compound 0.3 µM, first compound 0.1 µM
[41] = second compound 0.3 µM, first compound 0.316 µM
[42] = second compound 0.3 µM, first compound 1 µM
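Further: spheroids exposed to compounds for seven days before readout.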

`CCN1CCN(Cc2ccc(Nc3ncc(F)c(-c4cc(F)c5nc(C)n(C(C)C)c5c4)n3)nc2)CC1` + CCn1c(-c2cc(N3CCN(C)CC3)cnc2C(C)OC)c2c3cc(ccc31)-c1csc(n1)CC(NC(=O)C1CC1C)C(=O)N1CCCC(N1)C(=O)OCC(C)(C)C2 gave an IC50 [1] of under 3.16 nM, an IC50 [2] of under 3.16 nM and an IC50 [3] of under 3.16 nM. For the same compound, the IC50 [4] was under 3.16 nM, the IC50 [5] was under 3.16 nM and the IC50 [6] was under 3.16 nM. It also gave a viability, T/C [7] of 49.8%, a viability, T/C [8] of 45% and a viability, T/C [9] of 35.2%. It also gave a viability, T/C [10] of 24.1%, a viability, T/C [11] of 16.6% and a viability, T/C [12] of 11.2%. For the same compound, the viability, T/C [13] was 15.5%, the viability, T/C [14] was 14.5% and the viability, T/C [15] was 15.9%. It also gave a viability, T/C [16] of 10.2%, a viability, T/C [17] of 6.69% and a viability, T/C [18] of 4.94%. The viability, T/C [19] was 6.06%, the viability, T/C [20] was 5.48% and the viability, T/C [21] was 4.58%. It also gave a viability, T/C [22] of 3.84%, a viability, T/C [23] of 3.67% and a viability, T/C [24] of 2.8%. It also gave a viability, T/C [25] of 3.02%, a viability, T/C [26] of 2.33% and a viability, T/C [27] of 2.87%. The viability, T/C [28] was 2.54%, the viability, T/C [29] was 2.06% and the viability, T/C [30] was 2.27%. It also gave a viability, T/C [31] of 1.82%, a viability, T/C [32] of 1.82% and a viability, T/C [33] of 1.85%. It also gave a viability, T/C [34] of 2.2%, a viability, T/C [35] of 2.06% and a viability, T/C [36] of 1.76%. For the same compound, the viability, T/C [37] was 1.71%, the viability, T/C [38] was 3.5% and the viability, T/C [39] was 2.34%. The viability, T/C [40] was 1.78%, the viability, T/C [41] was 2.27% and the viability, T/C [42] was 1.13%.

With `C=CC(=O)Nc1cc(Nc2nccc(-c3cn(C)c4ccccc34)n2)c(OC)cc1N(C)CCN(C)C` + CCn1c(-c2cccnc2C(C)OC)c2c3cc(ccc31)N1CCOC(CC(NC(=O)C(C(C)C)N(C)C(=O)C3(F)CCN(C(=O)C#CC(C)(C)N(C)C)CC3)C(=O)N3CCCC(N3)C(=O)OCC(C)(C)C2)C1 the IC50 [1] was 727 nM, the IC50 [2] was 694 nM and the IC50 [3] was 682 nM. For the same compound, the IC50 [4] was 699 nM, the IC50 [5] was 598 nM and the IC50 [6] was 639 nM. It also gave a viability, T/C [7] of 107%, a viability, T/C [8] of 83.9% and a viability, T/C [9] of 94.3%. It also gave a viability, T/C [10] of 84.5%, a viability, T/C [11] of 77.6% and a viability, T/C [12] of 40%. The viability, T/C [13] was 93.3%, the viability, T/C [14] was 96.2% and the viability, T/C [15] was 101%. The viability, T/C [16] was 80%, the viability, T/C [17] was 62.9% and the viability, T/C [18] was 44.2%. It also gave a viability, T/C [19] of 101%, a viability, T/C [20] of 100% and a viability, T/C [21] of 90.5%. The viability, T/C [22] was 84.6%, the viability, T/C [23] was 64.1% and the viability, T/C [24] was 42.6%. For the same compound, the viability, T/C [25] was 104%, the viability, T/C [26] was 99.1% and the viability, T/C [27] was 97.6%. It also gave a viability, T/C [28] of 75.6%, a viability, T/C [29] of 69.9% and a viability, T/C [30] of 41.9%. It also gave a viability, T/C [31] of 91.3%, a viability, T/C [32] of 90.2% and a viability, T/C [33] of 85%. It also gave a viability, T/C [34] of 76.7%, a viability, T/C [35] of 66% and a viability, T/C [36] of 37.7%. For the same compound, the viability, T/C [37] was 77.7%, the viability, T/C [38] was 81% and the viability, T/C [39] was 80.7%. For the same compound, the viability, T/C [40] was 82.4%, the viability, T/C [41] was 64.3% and the viability, T/C [42] was 40.9%.

`CC1(C)CCC(Nc2ncc(C(F)(F)F)c(-c3c[nH]c4c(P(C)(C)=O)c(C#N)ccc34)n2)CN1` (configuration not stated) + C=CC(=O)N1CCN(c2nc(OCC3CCCN3C)nc3c(F)c(-c4nc(N)cc(C)c4C(F)(F)F)c(Cl)cc23)C(C)C1 was tested, and the IC50 (curve of first compound, second compound 0.00316 µM) was 2.98 nM, the IC50 (curve of first compound, second compound 0.01 µM) was 4.06 nM and the IC50 (curve of first compound, second compound 0.0316 µM) was 4.22 nM. It also gave an IC50 (curve of first compound, second compound 0.1 µM) of 2.65 nM, an IC50 (curve of first compound, second compound 0.316 µM) of 3.18 nM and an IC50 (curve of first compound, second compound 1 µM) of 3.33 nM. For the same compound, the viability, T/C (second compound 0.00316 µM, first compound 0.000949 µM) was 83.3%, the viability, T/C (second compound 0.00316 µM, first compound 0.003 µM) was 49.5% and the viability, T/C (second compound 0.00316 µM, first compound 0.00949 µM) was 27.8%. For the same compound, the viability, T/C (second compound 0.00316 µM, first compound 0.03 µM) was 15.9%, the viability, T/C (second compound 0.00316 µM, first compound 0.0949 µM) was 14.4% and the viability, T/C (second compound 0.00316 µM, first compound 0.3 µM) was 13.2%. For the same compound, the viability, T/C (second compound 0.01 µM, first compound 0.000949 µM) was 89%, the viability, T/C (second compound 0.01 µM, first compound 0.003 µM) was 57.6% and the viability, T/C (second compound 0.01 µM, first compound 0.00949 µM) was 28.6%. It also gave a viability, T/C (second compound 0.01 µM, first compound 0.03 µM) of 17%, a viability, T/C (second compound 0.01 µM, first compound 0.0949 µM) of 13.9% and a viability, T/C (second compound 0.01 µM, first compound 0.3 µM) of 14.7%. For the same compound, the viability, T/C (second compound 0.0316 µM, first compound 0.000949 µM) was 79.1%, the viability, T/C (second compound 0.0316 µM, first compound 0.003 µM) was 60.1% and the viability, T/C (second compound 0.0316 µM, first compound 0.00949 µM) was 26%. For the same compound, the viability, T/C (second compound 0.0316 µM, first compound 0.03 µM) was 18.8%, the viability, T/C (second compound 0.0316 µM, first compound 0.0949 µM) was 14.8% and the viability, T/C (second compound 0.0316 µM, first compound 0.3 µM) was 15%. It also gave a viability, T/C (second compound 0.1 µM, first compound 0.000949 µM) of 74.6%, a viability, T/C (second compound 0.1 µM, first compound 0.003 µM) of 46.9% and a viability, T/C (second compound 0.1 µM, first compound 0.00949 µM) of 27.7%. For the same compound, the viability, T/C (second compound 0.1 µM, first compound 0.03 µM) was 17.5%, the viability, T/C (second compound 0.1 µM, first compound 0.0949 µM) was 14.5% and the viability, T/C (second compound 0.1 µM, first compound 0.3 µM) was 12.5%. For the same compound, the viability, T/C (second compound 0.316 µM, first compound 0.000949 µM) was 76.1%, the viability, T/C (second compound 0.316 µM, first compound 0.003 µM) was 51.3% and the viability, T/C (second compound 0.316 µM, first compound 0.00949 µM) was 26.7%. The viability, T/C (second compound 0.316 µM, first compound 0.03 µM) was 16.5%, the viability, T/C (second compound 0.316 µM, first compound 0.0949 µM) was 13.6% and the viability, T/C (second compound 0.316 µM, first compound 0.3 µM) was 13.2%. The viability, T/C (second compound 1 µM, first compound 0.000949 µM) was 78.7%, the viability, T/C (second compound 1 µM, first compound 0.003 µM) was 52.6% and the viability, T/C (second compound 1 µM, first compound 0.00949 µM) was 25%. The viability, T/C (second compound 1 µM, first compound 0.03 µM) was 17.4%, the viability, T/C (second compound 1 µM, first compound 0.0949 µM) was 16% and the viability, T/C (second compound 1 µM, first compound 0.3 µM) was 12.5%.

For `CC(C)NCC(C(=O)N1CCN(c2ncnc3c2C(C)CC3O)CC1)c1ccc(Cl)cc1` (configuration not stated), the viability, T/C (compound 0.1 µM) was 92% [middle of 4 runs], the viability, T/C (compound 0.316 µM) was 75.2% [middle of 4 runs] and the viability, T/C (compound 1 µM) was 63.2% [middle of 4 runs]. The viability, T/C (compound 3.16 µM) was 51.9% [middle of 4 runs], the viability, T/C (compound 10 µM) was 36.2% [middle of 4 runs] and the IC50 (curve of compound) was 2.58 µM [middle of 4 runs].
